# Assay results: US9708314B2, “Heterocyclic amide compound” (NISSAN CHEMICAL INDUSTRIES, LTD., priority 2013, dated 2017)
# Legend:
# Assay type in all cases: in vivo
# [1] = tested on: directly sowed Oryza sativa; assay: Test Example 3: effect on crop by application to foliage (Wagner pot, water depth 0.1-0.5 cm); details: Nineteenth Table; application to foliage; application herbicide amount 224 g/ha
# Description: (§1) 5 Herbicidal ratio of 90% or more (almost completely withered) 4 Herbicidal ratio of 70% or more and less than 90% 3 Herbicidal ratio of 40% or more and less than 70% 2 Herbicidal ratio of 20% or more and less than 40% 1 Herbicidal ratio of 5% or more and less than 20% 0 Herbicidal ratio of 5% or less (almost no effect) [Test Example 3] Herbicidal Effect Test by Application to Foliage After alluvial soil was placed into 1/10000 are of Wagner pot, water was poured and mixed to form a condition having a water depth of 0.1 cm to 0.5 cm. Seeds of Echinochloa crus-galli var. crus-galli, Leptochloa chinensis, Cyperus difformis, and Oryza sativa were sowed and the pot was placed in the greenhouse of 25° C. to 30° C. to grow the plants. After the plants were grown for 14 days, the emulsion agent containing the compound of the present invention prepared in accordance with Formulation Example 2 was diluted with water so as to be a predetermined herbicide amount and the diluted compound was uniformly applied to a stem and leaf part with a small-size spray. Three weeks after the herbicide application, effects on each plant were investigated in accordance with the criteria of Test Example 1. A: Echinochloa oryzicola Vasing., B: Scirpus juncoides, C: Monochoria vaginalis, D: Leptochloa chinensis, E: Cyperus difformis, F: Digitaria ciliaris, G: Setaria viridis, H: Echinochloa crus-galli var. crus-galli, I: Avena fatua, J: Alopecurus myosuroides, K: Lolium multiflorum Lam., L: Apera spica-venti., M: Abutilon theophrasti, N: Amaranthus retroflexus, O: Chenopodium album, P: Stellaria media, Q: Galium spurium, R: Veronica persica, a: transplanted Oryza sativa, b: directly sowed Oryza sativa, c: Zea mays, d: Glycine max, e: Triticum aestivum, f: Beta vulgaris ssp. vulgaris, and g: Brassica campestris L. The application herbicide amount (g/ha) means an amount that a concentration is adjusted so that, when an application amount is converted into per hectare (1 ha), the herbicide is applied by the number of grams (g) of the described value.
# [2] = tested on: Echinochloa crus-galli var. crus-galli; assay: Test Example 4: herbicidal effect by application to foliage (diluvial soil, plastic box); details: for H: herbicidal effect on Echinochloa crus-galli var. crus-galli: application to foliage, application herbicide amount 320 g/ha
# Description: (§2) 5 Herbicidal ratio of 90% or more (almost completely withered) 4 Herbicidal ratio of 70% or more and less than 90% 3 Herbicidal ratio of 40% or more and less than 70% 2 Herbicidal ratio of 20% or more and less than 40% 1 Herbicidal ratio of 5% or more and less than 20% 0 Herbicidal ratio of 5% or less (almost no effect) [Test Example 4] Herbicidal Effect Test by Application to Foliage Sterilized diluvial soil was placed in a plastic box having a length of 21 cm, a width of 13 cm, and a depth of 7 cm. Each of the seeds of Digitaria ciliaris, Setaria viridis, Echinochloa crus-galli var. crus-galli, Avena fatua, Alopecurus myosuroides, Lolium multiflorum Lam., Apera spica-venti., Abutilon theophrasti, Amaranthus retroflexus, Chenopodium album, Stellaria media, Galium spurium, Veronica persica, Zea mays, Glycine max, Oryza sativa, Triticum aestivum, Beta vulgaris ssp. vulgaris, and Brassica campestris L. was sowed in a spot-like manner and was covered with the soil of about 1.5 cm thick. Thereafter, the plants were grown in the greenhouse of 25° C. to 30° C. After the plants were grown for 14 days, the emulsion agent containing the compound of the present invention prepared in accordance with Formulation Example 2 was diluted with water so as to be a predetermined herbicide amount and the diluted compound was uniformly applied to a stem and leaf part with a small-size spray. Three weeks after the herbicide application, effects on each plant were investigated in accordance with the criteria of Test Example 1. A: Echinochloa oryzicola Vasing., B: Scirpus juncoides, C: Monochoria vaginalis, D: Leptochloa chinensis, E: Cyperus difformis, F: Digitaria ciliaris, G: Setaria viridis, H: Echinochloa crus-galli var. crus-galli, I: Avena fatua, J: Alopecurus myosuroides, K: Lolium multiflorum Lam., L: Apera spica-venti., M: Abutilon theophrasti, N: Amaranthus retroflexus, O: Chenopodium album, P: Stellaria media, Q: Galium spurium, R: Veronica persica, a: transplanted Oryza sativa, b: directly sowed Oryza sativa, c: Zea mays, d: Glycine max, e: Triticum aestivum, f: Beta vulgaris ssp. vulgaris, and g: Brassica campestris L. The application herbicide amount (g/ha) means an amount that a concentration is adjusted so that, when an application amount is converted into per hectare (1 ha), the herbicide is applied by the number of grams (g) of the described value.
# [3] = tested on: Digitaria ciliaris; assay: as above; details: for F: herbicidal effect on Digitaria ciliaris: application to foliage, application herbicide amount 320 g/ha
# Description: as §2
# [4] = tested on: Galium spurium; assay: as above; details: for Q: herbicidal effect on Galium spurium: application to foliage, application herbicide amount 320 g/ha
# Description: as §2
# [5] = tested on: Veronica persica; assay: as above; details: for R: herbicidal effect on Veronica persica: application to foliage, application herbicide amount 320 g/ha
# Description: as §2
# [6] = tested on: Setaria viridis; assay: as above; details: for G: herbicidal effect on Setaria viridis: application to foliage, application herbicide amount 320 g/ha
# Description: as §2
# [7] = tested on: Avena fatua; assay: as above; details: for I: herbicidal effect on Avena fatua: application to foliage, application herbicide amount 320 g/ha
# Description: as §2
# [8] = tested on: Apera spica-venti.; assay: as above; details: for L: herbicidal effect on Apera spica-venti.: application to foliage, application herbicide amount 320 g/ha
# Description: as §2
# [9] = tested on: Lolium multiflorum Lam.; assay: as above; details: for K: herbicidal effect on Lolium multiflorum Lam.: application to foliage, application herbicide amount 320 g/ha
# Description: as §2
# [10] = tested on: Chenopodium album; assay: as above; details: for O: herbicidal effect on Chenopodium album: application to foliage, application herbicide amount 320 g/ha
# Description: as §2
# [11] = tested on: Abutilon theophrasti; assay: as above; details: for M: herbicidal effect on Abutilon theophrasti: application to foliage, application herbicide amount 320 g/ha
# Description: as §2
# [12] = tested on: Alopecurus myosuroides; assay: as above; details: for J: herbicidal effect on Alopecurus myosuroides: application to foliage, application herbicide amount 320 g/ha
# Description: as §2
# [13] = tested on: directly sowed Oryza sativa; assay: Test Example 4: effect on crop by application to foliage (diluvial soil, plastic box); details: for b: effect on crop, directly sowed Oryza sativa: application to foliage, application herbicide amount 320 g/ha
# Description: as §2
# [14] = tested on: Glycine max; assay: as above; details: for d: effect on crop, Glycine max: application to foliage, application herbicide amount 320 g/ha
# Description: as §2
# [15] = tested on: Triticum aestivum; assay: as above; details: for e: effect on crop, Triticum aestivum: application to foliage, application herbicide amount 320 g/ha
# Description: as §2
# [16] = tested on: Brassica campestris L.; assay: as above; details: for g: effect on crop, Brassica campestris L.: application to foliage, application herbicide amount 320 g/ha
# Description: as §2
# [17] = tested on: Beta vulgaris ssp. vulgaris; assay: as above; details: for f: effect on crop, Beta vulgaris ssp. vulgaris: application to foliage, application herbicide amount 320 g/ha
# Description: as §2
# [18] = tested on: Zea mays; assay: as above; details: for c: effect on crop, Zea mays: application to foliage, application herbicide amount 320 g/ha
# Description: as §2
# [19] = tested on: Echinochloa crus-galli var. crus-galli; assay: Test Example 3: herbicidal effect by application to foliage (Wagner pot, water depth 0.1-0.5 cm); details: Nineteenth Table; application to foliage; application herbicide amount 224 g/ha
# Description: as §1
# [20] = tested on: Leptochloa chinensis; assay: as above; details: Nineteenth Table; application to foliage; application herbicide amount 224 g/ha
# Description: as §1
# [21] = tested on: Cyperus difformis; assay: as above; details: Nineteenth Table; application to foliage; application herbicide amount 224 g/ha
# Description: as §1
# [22] = tested on: Amaranthus retroflexus; assay: Test Example 4: herbicidal effect by application to foliage (diluvial soil, plastic box); details: application to foliage, application herbicide amount 320 g/ha
# Description: as §2
# [23] = tested on: Stellaria media; assay: as above; details: application to foliage, application herbicide amount 320 g/ha
# Description: as §2
# [24] = Application herbicide amount 224 g/ha
# [25] = Application herbicide amount 224 g/ha, effect on crop
smiles,measurement,setting,value
Cc1nnc(NC(=O)c2c(C)cc(C(F)(F)F)n3c(C(C)C)nnc23)o1 [1-089],b (effect on crop grade),[1],0 (Herbicidal ratio of 5% or less (almost no effect))
same,H,[2]; [24],3 (Herbicidal ratio of 40% or more and less than 70%)
same,F,[3]; [24],1 (Herbicidal ratio of 5% or more and less than 20%)
same,Q,[4]; [24],0 (Herbicidal ratio of 5% or less (almost no effect))
same,R,[5]; [24],3 (Herbicidal ratio of 40% or more and less than 70%)
same,G,[6]; [24],0 (Herbicidal ratio of 5% or less (almost no effect))
same,I,[7]; [24],2 (Herbicidal ratio of 20% or more and less than 40%)
same,L,[8]; [24],0 (Herbicidal ratio of 5% or less (almost no effect))
same,K,[9]; [24],0 (Herbicidal ratio of 5% or less (almost no effect))
same,O,[10]; [24],4 (Herbicidal ratio of 70% or more and less than 90%)
same,M,[11]; [24],2 (Herbicidal ratio of 20% or more and less than 40%)
same,J,[12]; [24],0 (Herbicidal ratio of 5% or less (almost no effect))
same,d,[13]; [25],1 (Herbicidal ratio of 5% or more and less than 20%)
same,c,[14]; [25],0 (Herbicidal ratio of 5% or less (almost no effect))
same,e,[15]; [25],0 (Herbicidal ratio of 5% or less (almost no effect))
same,g,[16]; [25],1 (Herbicidal ratio of 5% or more and less than 20%)
same,f,[17]; [25],3 (Herbicidal ratio of 40% or more and less than 70%)
same,b,[18]; [25],0 (Herbicidal ratio of 5% or less (almost no effect))
same,H (herbicidal effect grade),[19],3 (Herbicidal ratio of 40% or more and less than 70%)
same,D (herbicidal effect grade),[20],3 (Herbicidal ratio of 40% or more and less than 70%)
same,E (herbicidal effect grade),[21],2 (Herbicidal ratio of 20% or more and less than 40%)
CC#Cc1nnc2c(C(=O)Nc3nnco3)ccc(C(F)(F)F)n12 [1-160],H: herbicidal effect on Echinochloa crus-galli var. crus-galli,[2],2 (Herbicidal ratio of 20% or more and less than 40%)
same,F: herbicidal effect on Digitaria ciliaris,[3],1 (Herbicidal ratio of 5% or more and less than 20%)
same,Q: herbicidal effect on Galium spurium,[4],0 (Herbicidal ratio of 5% or less (almost no effect))
same,R: herbicidal effect on Veronica persica,[5],1 (Herbicidal ratio of 5% or more and less than 20%)
same,N: herbicidal effect on Amaranthus retroflexus,[22],1 (Herbicidal ratio of 5% or more and less than 20%)
same,G: herbicidal effect on Setaria viridis,[6],0 (Herbicidal ratio of 5% or less (almost no effect))
same,I: herbicidal effect on Avena fatua,[7],0 (Herbicidal ratio of 5% or less (almost no effect))
same,L: herbicidal effect on Apera spica-venti.,[8],0 (Herbicidal ratio of 5% or less (almost no effect))
same,K: herbicidal effect on Lolium multiflorum Lam.,[9],0 (Herbicidal ratio of 5% or less (almost no effect))
same,P: herbicidal effect on Stellaria media,[23],3 (Herbicidal ratio of 40% or more and less than 70%)
same,O: herbicidal effect on Chenopodium album,[10],4 (Herbicidal ratio of 70% or more and less than 90%)
same,M: herbicidal effect on Abutilon theophrasti,[11],3 (Herbicidal ratio of 40% or more and less than 70%)
same,J: herbicidal effect on Alopecurus myosuroides,[12],0 (Herbicidal ratio of 5% or less (almost no effect))
same,"b: effect on crop, directly sowed Oryza sativa",[13],0 (Herbicidal ratio of 5% or less (almost no effect))
same,"d: effect on crop, Glycine max",[14],2 (Herbicidal ratio of 20% or more and less than 40%)
same,"e: effect on crop, Triticum aestivum",[15],0 (Herbicidal ratio of 5% or less (almost no effect))
same,"g: effect on crop, Brassica campestris L.",[16],0 (Herbicidal ratio of 5% or less (almost no effect))
same,"f: effect on crop, Beta vulgaris ssp. vulgaris",[17],2 (Herbicidal ratio of 20% or more and less than 40%)
same,"c: effect on crop, Zea mays",[18],0 (Herbicidal ratio of 5% or less (almost no effect))
CC(C)c1nnc2c(C(=O)Nc3nnnn3C)cc(C(F)(F)F)cn12 [2-018],H: herbicidal effect on Echinochloa crus-galli var. crus-galli,[2],1 (Herbicidal ratio of 5% or more and less than 20%)
same,F: herbicidal effect on Digitaria ciliaris,[3],2 (Herbicidal ratio of 20% or more and less than 40%)
same,Q: herbicidal effect on Galium spurium,[4],1 (Herbicidal ratio of 5% or more and less than 20%)
same,R: herbicidal effect on Veronica persica,[5],2 (Herbicidal ratio of 20% or more and less than 40%)
same,N: herbicidal effect on Amaranthus retroflexus,[22],3 (Herbicidal ratio of 40% or more and less than 70%)
same,G: herbicidal effect on Setaria viridis,[6],1 (Herbicidal ratio of 5% or more and less than 20%)
same,I: herbicidal effect on Avena fatua,[7],0 (Herbicidal ratio of 5% or less (almost no effect))
same,L: herbicidal effect on Apera spica-venti.,[8],0 (Herbicidal ratio of 5% or less (almost no effect))
same,K: herbicidal effect on Lolium multiflorum Lam.,[9],0 (Herbicidal ratio of 5% or less (almost no effect))
same,P: herbicidal effect on Stellaria media,[23],0 (Herbicidal ratio of 5% or less (almost no effect))
same,O: herbicidal effect on Chenopodium album,[10],3 (Herbicidal ratio of 40% or more and less than 70%)
same,M: herbicidal effect on Abutilon theophrasti,[11],3 (Herbicidal ratio of 40% or more and less than 70%)
same,J: herbicidal effect on Alopecurus myosuroides,[12],0 (Herbicidal ratio of 5% or less (almost no effect))
same,"b: effect on crop, directly sowed Oryza sativa",[13],0 (Herbicidal ratio of 5% or less (almost no effect))
same,"d: effect on crop, Glycine max",[14],0 (Herbicidal ratio of 5% or less (almost no effect))
same,"e: effect on crop, Triticum aestivum",[15],0 (Herbicidal ratio of 5% or less (almost no effect))
same,"g: effect on crop, Brassica campestris L.",[16],0 (Herbicidal ratio of 5% or less (almost no effect))
same,"f: effect on crop, Beta vulgaris ssp. vulgaris",[17],1 (Herbicidal ratio of 5% or more and less than 20%)
same,"c: effect on crop, Zea mays",[18],0 (Herbicidal ratio of 5% or less (almost no effect))
